Test system: 242566-281-R-J2-PDC complex spheroid viability
Test: Anticancer human tumor 242566-281-R-J2-PDC patient-derived pancreatic carcinoma cell line growth inhibition [RAS]
Details: for IC50: curve of first compound; for viability, T/C: stronger effect = lower value
Summary of the method: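 Agents were tested in combination matrices in half-log decrements from a top concentration at or near clinical Cmax (10 microM if undetermined). Targets were multi-cell spheroids of tumour lines plus HUVEC and MSC stromal cells.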
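Further: spheroids exposed to compound for 7 days before readout.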
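Wherever viability, T/C is given: 100% = DMSO vehicle control wells.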

CC(=O)OC12COC1CC(O)C1(C)C(=O)C(O)C3=C(C)C(OC(=O)C(O)C(NC(=O)OC(C)(C)C)c4ccccc4)CC(O)(C(OC(=O)c4ccccc4)C21)C3(C)C (centres undefined) + C#Cc1c(F)ccc2cc(O)cc(-c3ncc4c(N5CC6CCC(C5)N6)nc(OCC56CCCN5CC(F)C6)nc4c3F)c12
IC50 (second compound 0.0316 µM): > 10000 nM
IC50 (second compound 0.1 µM): < 31.6 nM
IC50 (second compound 0.316 µM): < 31.6 nM
IC50 (second compound 1 µM): < 31.6 nM
IC50 (second compound 3.16 µM): < 31.6 nM
IC50 (second compound 10 µM): < 31.6 nM
viability, T/C (second compound 0.0316 µM, first compound 0.0316 µM): 62.9%
viability, T/C (second compound 0.0316 µM, first compound 0.1 µM): 54.2%
viability, T/C (second compound 0.0316 µM, first compound 0.316 µM): 55%
viability, T/C (second compound 0.0316 µM, first compound 1 µM): 37.4%
viability, T/C (second compound 0.0316 µM, first compound 3.16 µM): 55.3%
viability, T/C (second compound 0.0316 µM, first compound 10 µM): 71.7%
viability, T/C (second compound 0.1 µM, first compound 0.0316 µM): 54.4%
viability, T/C (second compound 0.1 µM, first compound 0.1 µM): 52.1%
viability, T/C (second compound 0.1 µM, first compound 0.316 µM): 42.2%
viability, T/C (second compound 0.1 µM, first compound 1 µM): 40.9%
viability, T/C (second compound 0.1 µM, first compound 3.16 µM): 52.8%
viability, T/C (second compound 0.1 µM, first compound 10 µM): 56.9%
viability, T/C (second compound 0.316 µM, first compound 0.0316 µM): 45.7%
viability, T/C (second compound 0.316 µM, first compound 0.1 µM): 43.1%
viability, T/C (second compound 0.316 µM, first compound 0.316 µM): 30.8%
viability, T/C (second compound 0.316 µM, first compound 1 µM): 40.6%
viability, T/C (second compound 0.316 µM, first compound 3.16 µM): 39.9%
viability, T/C (second compound 0.316 µM, first compound 10 µM): 43.6%
viability, T/C (second compound 1 µM, first compound 0.0316 µM): 37.8%
viability, T/C (second compound 1 µM, first compound 0.1 µM): 36.4%
viability, T/C (second compound 1 µM, first compound 0.316 µM): 36.5%
viability, T/C (second compound 1 µM, first compound 1 µM): 32.3%
viability, T/C (second compound 1 µM, first compound 3.16 µM): 34.2%
viability, T/C (second compound 1 µM, first compound 10 µM): 29%
viability, T/C (second compound 3.16 µM, first compound 0.0316 µM): 37.1%
viability, T/C (second compound 3.16 µM, first compound 0.1 µM): 26.4%
viability, T/C (second compound 3.16 µM, first compound 0.316 µM): 23.6%
viability, T/C (second compound 3.16 µM, first compound 1 µM): 30.3%
viability, T/C (second compound 3.16 µM, first compound 3.16 µM): 30.7%
viability, T/C (second compound 3.16 µM, first compound 10 µM): 23.2%
viability, T/C (second compound 10 µM, first compound 0.0316 µM): 30.2%
viability, T/C (second compound 10 µM, first compound 0.1 µM): 26.5%
viability, T/C (second compound 10 µM, first compound 0.316 µM): 23.4%
viability, T/C (second compound 10 µM, first compound 1 µM): 25.6%
viability, T/C (second compound 10 µM, first compound 3.16 µM): 28.6%
viability, T/C (second compound 10 µM, first compound 10 µM): 28.2%

CCc1c2c(nc3ccc(O)cc13)-c1cc3c(c(=O)n1C2)COC(=O)[C@]3(O)CC + C#Cc1c(F)ccc2cc(O)cc(-c3ncc4c(N5CC6CCC(C5)N6)nc(OCC56CCCN5CC(F)C6)nc4c3F)c12
IC50 (second compound 0.0316 µM): 31.6 nM
IC50 (second compound 0.1 µM): 24.1 nM
IC50 (second compound 0.316 µM): 15.1 nM
IC50 (second compound 1 µM): 6.64 nM
IC50 (second compound 3.16 µM): 3.3 nM
IC50 (second compound 10 µM): 3.46 nM
viability, T/C (second compound 0.0316 µM, first compound 0.000949 µM): 100%
viability, T/C (second compound 0.0316 µM, first compound 0.003 µM): 97.3%
viability, T/C (second compound 0.0316 µM, first compound 0.00949 µM): 76.1%
viability, T/C (second compound 0.0316 µM, first compound 0.03 µM): 51.3%
viability, T/C (second compound 0.0316 µM, first compound 0.0949 µM): 29.3%
viability, T/C (second compound 0.0316 µM, first compound 0.3 µM): 17.7%
viability, T/C (second compound 0.1 µM, first compound 0.000949 µM): 74.1%
viability, T/C (second compound 0.1 µM, first compound 0.003 µM): 86.4%
viability, T/C (second compound 0.1 µM, first compound 0.00949 µM): 70.2%
viability, T/C (second compound 0.1 µM, first compound 0.03 µM): 44.9%
viability, T/C (second compound 0.1 µM, first compound 0.0949 µM): 39.4%
viability, T/C (second compound 0.1 µM, first compound 0.3 µM): 31.7%
viability, T/C (second compound 0.316 µM, first compound 0.000949 µM): 72.8%
viability, T/C (second compound 0.316 µM, first compound 0.003 µM): 74.9%
viability, T/C (second compound 0.316 µM, first compound 0.00949 µM): 53%
viability, T/C (second compound 0.316 µM, first compound 0.03 µM): 45%
viability, T/C (second compound 0.316 µM, first compound 0.0949 µM): 35.4%
viability, T/C (second compound 0.316 µM, first compound 0.3 µM): 36%
viability, T/C (second compound 1 µM, first compound 0.000949 µM): 59.3%
viability, T/C (second compound 1 µM, first compound 0.003 µM): 66%
viability, T/C (second compound 1 µM, first compound 0.00949 µM): 44.3%
viability, T/C (second compound 1 µM, first compound 0.03 µM): 36%
viability, T/C (second compound 1 µM, first compound 0.0949 µM): 29.5%
viability, T/C (second compound 1 µM, first compound 0.3 µM): 30.8%
viability, T/C (second compound 3.16 µM, first compound 0.000949 µM): 56.3%
viability, T/C (second compound 3.16 µM, first compound 0.003 µM): 50.6%
viability, T/C (second compound 3.16 µM, first compound 0.00949 µM): 40.8%
viability, T/C (second compound 3.16 µM, first compound 0.03 µM): 32.7%
viability, T/C (second compound 3.16 µM, first compound 0.0949 µM): 31.5%
viability, T/C (second compound 3.16 µM, first compound 0.3 µM): 30.4%
viability, T/C (second compound 10 µM, first compound 0.000949 µM): 58.6%
viability, T/C (second compound 10 µM, first compound 0.003 µM): 52.5%
viability, T/C (second compound 10 µM, first compound 0.00949 µM): 38.3%
viability, T/C (second compound 10 µM, first compound 0.03 µM): 41%
viability, T/C (second compound 10 µM, first compound 0.0949 µM): 29.2%
viability, T/C (second compound 10 µM, first compound 0.3 µM): 22.8%

— PubChem BioAssay AID2060910 (Molecular Pharmacology Branch, DTP, NCI, 2025)
